Data on two compounds can be found in BindingDB's records for doi:10.1021/jm021079g (Academy of Sciences of The Czech Republic, 2003).

A word on the Ki: it is the dissociation constant of the complex between target and ligand, obtained from inhibition or displacement.

The experiment concerns the target T1, Dimer of Gag-Pol polyprotein [501-599] (Human immunodeficiency virus 1, UniProt P03367).
T1 construct: 501-599
The experiment in a line: Protease Inhibition Assay. The settings on record: pH 4.7. On the procedure: Inhibition constants were determined by a spectrophotometric assay with the chromogenic peptide substrate.

The compound `CC(C)(C)OC(=O)N[C@@H](Cc1ccccc1)[C@@H](O)CN[C@@H](Cc1ccccc1)C(=O)N[C@@H](CCC(=O)O)C(=O)N[C@@H](Cc1ccccc1)C(N)=O` returned an inhibitory constant (Ki) of 0.15 nM. This counts as sub-nanomolar. As for `CC(C)(C)OC(=O)N[C@@H](Cc1ccccc1)[C@@H](O)CN[C@@H](Cc1ccccc1)C(=O)N[C@@H](CCC(N)=O)C(=O)N[C@@H](Cc1ccccc1)C(N)=O`, the affinity corresponds to a Ki of 33 nM.
